The text below walks through data of patent US20020058636A1, “RIBOZYMES TARGETING THE RETROVIRAL PACKAGING SEQUENCE EXPRESSION CONSTRUCTS AND RECOMBINANT RETROVIRUSES CONTAINING SUCH CONSTRUCTS” (priority 1994, published 2002).

Format in all cases: cell-based
Series [1] deals with HIV-1 (SF2). Kind of series: Syncitia formation of infected SupT1 cells over days post infection. The protocol:
The anti-HIV packaging site construct, pSV-Rz-HIV-Psi, was electroporated into Sup T-1 cells, a human T lymphoma cell line. Exponentially growing cells were harvested and the number of viable cells counted by dye exclusion. The cells were washed with PBS and resuspended at a density of 1×10^7 viable cells/ml in RPMI media without FCS but containing 10 m,M dextrose and 0.1 mM dithiothreitol. 0.4 ml of the cell suspension and 10 μg of pSV-Rz-HIV-Psi plasmid DNA were used per electroporation in 0.4 cm cuvettes (Bio-Rad) . The cell and DNA mixture was subjected to a single pulse of 960 μF, 200V from a Gene Pulser (Bio-Rad) . After shocking, the cuvette was incubated for 10 minutes at room temperature, and the cells were then transferred to 10 ml of RPMI media with 10% FCS and placed into an incubator (5%CO2, 37° C.). At 48 hours post electroporation, the cells were selected in medium supplemented with 800 μg/ml G418. 9-12 days later, positive colonies were isolated and grown as clonal isolates to be used in a HIV protection assay.
(§1) Two assays, p24 antigen and syncytium formation, were performed to assess efficacy of the anti-HIV Psi ribozyme construct in cell culture. HIV-1 p24 antigen assay is an enzyme immunoassay, which uses a murine monoclonal antibody against HIV core antigen coated onto microwell strips. The HIV-1 syncytium assay is based on the observation that HIV-1 interacts with target T lymphocytes by causing fusion resulting in the formation of syncytia, large cells containing many nuclei. The clonal ribozyme-construct expressing cells, plus controls, were infected with HIV-1 (SF2) at m.o.i. of 0.1 to 1. After 2 hours, the cells were washed, and 10 ml of fresh media was added. Every 3-4 days, the number of both syncitia and viable cells were counted. […] In addition, the presence of the ribozyme caused a delay in syncitia formation (Table 4).

Series [2] relates to HIV-1 (SF2). Kind of series: HIV-1 p24 antigen assay in ribozyme-expressing Sup T-1 cells. The protocol:
Vector, is the control construct. Rz-2 and Rz-M are two ribozyme constructs targeted to the tat gene of HIV. Rz-M is a multi-ribozyme containing several ribozymes targeted to different sites within tat. This includes the site targeted by Rz-2.
as §1
In another experimental protocol, the cells were pelleted, and an aliquot of the supernatant taken for p24 assay. In this experiment there was an inhibition of p24 levels to day 22 post challenge.

For the next series, the system named is HIV-1 IIIB. Kind of series: BM12 antibody and ribozyme expression, p24 production in SupT1 cells. To be noted: BM12 Concentration 0.00 μg/ml. As to the method:
The anti-HIV-1 antibody BM12 has been tested for its potential combined effect with ribozymes on HIV-1 replication. Rz2 (a single ribozyme targeted to the HIV-1 tat gene) and SV2neo vector expressing SupT1 cells were infected with HIV-1 IIIB virus for 2 hr and then washed. The cells were resuspended in BM12 antibody containing medium (0, 0.5, 5, 50 μg BM12 antibody/ml) and incubated at 37° C., 5% CO2. Samples of medium were taken at days 3, 5, 9, 12 and 15 for p24 assays. Cytopathic effect (CPE) determined by syncytia formation was monitored at days 3, 6, 9, 12. […] The following Table 6 summarizes the p24 data at day 15.

Regarding “GTCAAAAATTGGCGCTGATGAGTCCGTGAGGACGAAACTCACCAGTCGCCG (chemistry not given here) [Rz-Psi, single anti-HIV Psi packaging site ribozyme cloned into neo r gene of pSV2neo]”, the Syncitia formation result with HIV-1 (SF2) [1] (6 Days Post Infection) was “− (−, no syncytia)”; in the series with HIV-1 (SF2) [1] (7 Days Post Infection), “− (−, no syncytia)”; with HIV-1 (SF2) [1] (8 Days Post Infection), “− (−, no syncytia)”; in the series on HIV-1 (SF2) [1] (9 Days Post Infection), “− (−, no syncytia)”; in the series with HIV-1 (SF2) [1] (10 Days Post Infection) it was “− (−, no syncytia)”; in the series on HIV-1 (SF2) [1] (11 Days Post Infection), “− (−, no syncytia)”.
As to “TTAGGATCCTGATGAGTCCGTGAGGACGAAACTGGCTC (chemistry not given here) [Rz-2, single ribozyme targeted to the HIV-1 tat gene]”, the “inhibition of HIV-1 replication” value with HIV-1 (SF2) [2] was “effective in inhibiting HIV-1 replication”. Also, the “p24 Production at Day 15” value with HIV-1 IIIB was 1.90 ng/mL.
